From PubChem BioAssay (NCI)
Where “and” joins values, the source holds several entries; their conditions need not be identical. Equal values may be shown once.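 Grown in 96-well plates, cells were treated for 48 hours with each compound at five concentrations. Insufficient inhibition: endpoint recorded as highest concentration tested. The concentration for 50% growth inhibition is given as GI50. TGI denotes the concentration required for complete inhibition of growth.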

Tests used:
Experiment in all cases: growth of human tumour cells (NCI), 48 h
EKVX NSCLC = test system: EKVX NSCLC
SF-539 CNS = test system: SF-539 CNS
SNB-19 CNS = test system: SNB-19 CNS
NCI-H226 lung = test system: NCI-H226 lung
OVCAR-4 ovarian = test system: OVCAR-4 ovarian
HOP-62 NSCLC = test system: HOP-62 NSCLC
M14 melanoma = test system: M14 melanoma
SK-MEL-28 melanoma = test system: SK-MEL-28 melanoma
UACC-62 melanoma = test system: UACC-62 melanoma
HCT-116 colon = test system: HCT-116 colon

Row | SMILES | GI50 (EKVX NSCLC) [µM] | TGI (EKVX NSCLC) [µM] | GI50 (SF-539 CNS) [µM] | TGI (SF-539 CNS) | GI50 (SNB-19 CNS) [µM] | TGI (SNB-19 CNS) | GI50 (NCI-H226 lung) | TGI (NCI-H226 lung) | GI50 (OVCAR-4 ovarian) [µM] | TGI (OVCAR-4 ovarian) | GI50 (HOP-62 NSCLC) [µM] | TGI (HOP-62 NSCLC) [µM] | GI50 (M14 melanoma) [µM] | TGI (M14 melanoma) [µM] | GI50 (SK-MEL-28 melanoma) | TGI (SK-MEL-28 melanoma) | GI50 (UACC-62 melanoma) [µM] | TGI (UACC-62 melanoma) | GI50 (HCT-116 colon) [µM] | TGI (HCT-116 colon) [µM]
1 | CCCCCCCCCCCC[n+]1ccccc1 | 0.936 | 9.17 | 1.47 | 4.9 µM | 1.3 | 2.94 µM | 1.44 µM | 8.83 µM | 0.515 | 14.5 µM | 1.9 | 5.57 | 0.835 | 2.82 | 1.68 µM | 5.12 µM | 1.17 | 2.81 µM | 1.92 | 10.7
2 | C[C@H]1[C@H](C)CC[C@]2(C(=O)O)CC[C@]3(C)C(=CC[C@@H]4[C@@]5(C)CC[C@H](OC(=O)/C=C/c6ccc(O)cc6)C(C)(C)[C@@H]5CC[C@]43C)[C@H]12 | 3.88 | 18.6 | 3.8 | 10.2 µM | 2.44 | 22.9 µM | 15.1 µM | 29.2 µM | 9.42 | 38.1 µM | 3.63 | 7.03 | 4.13 | 12.5 | 19.1 µM | > 74.5 µM | 15.1 | 31.6 µM | 3.09 | 7.93
3 | CC1(C)CC(OCCCC[P+](c2ccccc2)(c2ccccc2)c2ccccc2)CC(C)(C)N1O | 0.256 | 4.37 | 0.327 | 10.2 µM | 0.317 | 2.2 µM | 0.472 µM | 10.6 µM | 0.32 | 4.32 µM | 0.44 | 2.1 | 0.433 | 1.9 | 0.628 µM | 2.02 µM | 0.392 | 1.64 µM | 0.238 | 3.61
4 | Nc1ncnc2c(C3OC(CO)C(O)C3O)[nH]nc12 (centres undefined) | 1.6 |  | 0.271 | 2.32 µM and 5.87 µM | 0.138 | 3.68 µM and 24.8 µM | 0.529 µM and 0.793 µM | 5.83 µM and 10.7 µM | 0.116 | 3.51 µM and 2.3 µM | 0.123 |  | 0.248 | 13.5 | 2.64 µM and 1.69 µM | 30.6 µM and 25.4 µM |  | 10.7 µM and 10.2 µM |  | 3.16
5 | O=C(Nc1ccccc1)NS(=O)(=O)c1ccc(N2N=C3c4ccccc4CC3C2c2ccccn2)cc1 (centres undefined) | 27.8 | > 100 | 30.6 | 75.7 µM | 83.9 | > 100 µM | 23.7 µM | 75.3 µM | > 100 | > 100 µM | 20.4 | 45.5 | 24.9 | 51.4 | 71.5 µM | > 100 µM | 17.8 | 37.2 µM | 15.3 | 29.1
6 | COC(=O)c1ccc2c(c1)C(=O)c1c-2n(CCCN)c(=O)c2cc([N+](=O)[O-])ccc12 | 0.0811 | 0.857 | < 0.0196 | 0.21 µM | < 0.0205 | 1.87 µM | 0.102 µM | 1.67 µM |  | 0.647 µM | < 0.0161 | 0.532 | < 0.0222 | 0.46 |  | 0.81 µM | < 0.0254 | 0.398 µM | 0.0337 | 0.959
7 | CCC[CH2][Ge]([CH2]CCC)([CH2]CCC)[O]C(=O)C(OC)c1ccccc1 (centres undefined) | 16.4 | > 100 | 32.1 | > 100 µM | > 93.9 | > 100 µM | 92.7 µM | > 100 µM | 15.3 | > 100 µM | 20.6 | > 70.6 | 16.7 | 49.8 | 52.3 µM | > 100 µM | 30.7 | > 100 µM | 16.5 | > 100
8 | COc1cccc(-n2ncc3c(N/N=C/c4ccc(S(C)(=O)=O)cc4)ncnc32)c1 | > 22.9 | > 25 | 6.22 | > 25 µM | 11.5 | > 25 µM | 5.46 µM | 18.1 µM | 13.1 | > 25 µM | 5.85 | 11.5 | 5.74 | > 25 | 9.26 µM | > 25 µM | 3.47 | > 16.9 µM | 8.46 | > 25
9 | CNNC(=N\S(=O)(=O)c1cc(C(=O)Nc2ccc(Cl)cc2)c(Cl)cc1SCc1ccccc1)/N=C/c1ccc([N+](=O)[O-])s1 | > 54.4 | > 100 | > 100 | > 100 µM | > 100 | > 100 µM | > 100 µM | > 100 µM | > 100 | > 100 µM | > 36 | > 100 | 10.1 | > 100 | > 100 µM | > 100 µM | > 100 | > 100 µM | 2.3 | > 100
10 | CCC[CH2][Sn]([CH2]CCC)([O]C(=O)c1cc(OC)c(OC)cc1OC)[O]C(=O)c1cc(OC)c(OC)cc1OC | 1.64 | 4.83 | 1.02 | 2.23 µM | 0.626 | 1.82 µM | 2.21 µM | 8.26 µM | 1.9 | 4.31 µM | 2.35 | 4.41 | 1.51 | 2.99 | 0.971 µM | 2.23 µM | 1.12 | 2.37 µM | 1.51 | 2.85
11 | CCOC(=O)N1N=NC2C3OC(C[C@@]3(C#N)OC(C)=O)[C@H]21 (some centres undefined) |  | > 100 |  | > 100 µM |  | > 100 µM |  | > 100 µM |  | > 100 µM |  | > 100 |  | > 100 |  | > 100 µM |  | > 100 µM |  | > 100
12 | CC1=CC2=C(C(N)=O)C(=O)OC2(C)C(c2ccccc2)C1 (centres undefined) |  | > 100 |  | > 100 µM |  | > 100 µM |  | > 100 µM |  | > 100 µM |  | > 100 |  | > 100 |  | > 100 µM |  | > 100 µM |  | > 100
